Values of other authors in patent US6743821B2, “Glycerol-lactate esters for use as an energy supplement during exercise and recovery” (priority 2001, dated 2004).

Tests used:
[1] = blood of Wistar rats
isolated working hearts = settings: concentrated sodium lactate added to hearts from shocked animals

[13CH3]C(=O)C(=O)O [[3-^13C]pyruvate]
conversion of the infused tracer in the blood [1]: quickly converted to [3-^13C]lactate

CC(O)C(=O)[O-].[Na+] (centres unmarked) [sodium lactate]
performance of isolated working hearts (isolated working hearts): significantly enhanced
